Activity calls are given as the source filed them. The calls are words filed in the database; no cut-off is given here.
Legend:
[1] = AUC (0 to t) in Sprague-Dawley rat blood at 1 mg/kg, iv measured for 24 hrs by LC-MS/MS analysis; type: ADME, organism-based; set-up: time 24 hrs, dose 1 mg/kg
[2] = Half life in Sprague-Dawley rat blood at 1 mg/kg, iv measured for 24 hrs by LC-MS/MS analysis; type: ADME, organism-based
[3] = Initial drug concentration in Sprague-Dawley rat blood at 1 mg/kg, iv by LC-MS/MS analysis; type: ADME, organism-based
[4] = Initial plasma concentration in Sprague-Dawley rat at 1 mg/kg, iv by LC-MS/MS analysis; type: ADME, organism-based
[5] = Toxicity in athymic nude mouse xenografted with human SW620/5-FU cells assessed as histopathological changes in liver at 12.5 mg/kg/day, iv administered for 24 days in presence of 5-FU and measured on day 24 by immunohistochemistry; type: organism-based; settings: in vivo, 576 h, time 24 day
[6] = test system: Mus musculus; assay: Downregulation of DPD expression in liver of athymic nude mouse xenografted with human SW620/5-FU at 12.5 mg/kg/day, iv administered for 24 days in presence of 5-FU and measured on day 24 by immunohistochemistry; type: functional, organism-based; settings: time 24.0 day
[7] = test system: Mus musculus; assay: Downregulation of DPD expression in tumour of athymic nude mouse xenografted with human SW620/5-FU at 12.5 mg/kg/day, iv administered for 24 days in presence of 5-FU and measured on day 24 by immunohistochemistry; type: functional, organism-based; settings: time 24.0 day
[8] = Reversal of 5-FU resistance against human SW620/5-FU cells xenografted in athymic nude mouse assessed as potentiation of 5-FU induced antitumor activity by measuring inhibition of tumor growth at 12.5 mg/kg/day, iv administered for 24 days in presence of 5-FU (reference value: 18.54%); type: functional; settings: 576 h, time 24 day, read-out: TGI
[9] = Toxicity in athymic nude mouse xenografted with human SW620/5-FU cells assessed as body weight loss at 12.5 mg/kg/day, iv administered for 24 days in presence of 5-FU and measured after 12 days; type: organism-based; settings: in vivo, 288 h, time 12 day
[10] = biological target: T1, Sphingosine 1-phosphate receptor 2 (Homo sapiens, UniProt O95136); assay: Binding affinity to S1PR2 (unknown origin) assessed as association constant measured for 60 secs by surface plasmon resonance assay; settings: filed as antagonist, time 60.0 sec
T1 sequence (O95136 whole entry): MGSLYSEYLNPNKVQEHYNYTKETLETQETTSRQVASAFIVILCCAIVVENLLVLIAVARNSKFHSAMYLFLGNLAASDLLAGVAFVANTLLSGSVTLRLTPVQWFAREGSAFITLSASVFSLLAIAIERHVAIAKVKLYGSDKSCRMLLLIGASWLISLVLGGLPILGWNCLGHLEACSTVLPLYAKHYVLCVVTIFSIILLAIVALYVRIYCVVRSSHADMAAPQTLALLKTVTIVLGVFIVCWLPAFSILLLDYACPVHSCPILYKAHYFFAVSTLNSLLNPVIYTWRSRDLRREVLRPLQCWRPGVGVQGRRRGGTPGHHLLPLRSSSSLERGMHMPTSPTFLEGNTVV

[11] = biological target: T1, Sphingosine 1-phosphate receptor 2; assay: Binding affinity to S1PR2 (unknown origin) assessed as dissociation constant measured for 60 secs by surface plasmon resonance assay
[12] = biological target: T1, Sphingosine 1-phosphate receptor 2; assay: Binding affinity to S1PR2 (unknown origin) measured by surface plasmon resonance assay; settings: filed as antagonist
[13] = Reversal of 5-FU resistance against human SW620/5-FU cells assessed as inhibition of cell proliferation measured after 72 hrs in presence of 5-FU by MTT assay; type: functional, cell-based
[14] = test system: HCT-116; assay: Reversal of 5-FU resistance against human HCT-116 cells overexpressing DPD assessed as inhibition of cell proliferation measured after 72 hrs in presence of 5-FU by MTT assay; type: functional, cell-based; settings: HCT-116, 72 h
[15] = test system: NCM460; assay: Cytotoxicity against human NCM460 cells assessed as cell viability measured after 72 hrs in presence of 5-FU by MTT assay; type: cell-based; settings: NCM460, 72 h
[16] = biological target: T1, Sphingosine 1-phosphate receptor 2; assay: Antagonist activity at S1PR2 in human SW620/5-FU cells assessed as reduction of DPD-catalyzed 5-FU degradation by measuring intracellular 5-FU level at 2 uM measured after 6 hrs by HPLC-UV analysis; type: functional, cell-based; settings: filed as antagonist
[17] = biological target: T1, Sphingosine 1-phosphate receptor 2; assay: Antagonist activity at S1PR2 in human SW620/5-FU cells assessed as reduction of DPD-catalyzed 5-FU degradation by measuring intracellular FBAL level at 2 uM measured after 6 hrs by HPLC-UV analysis; type: functional, cell-based; settings: filed as antagonist
[18] = Half life in Sprague-Dawley rat plasma at 1 mg/kg, iv measured for 24 hrs by LC-MS/MS analysis; type: ADME, organism-based
[19] = AUC (0 to t) in Sprague-Dawley rat plasma at 1 mg/kg, iv measured for 24 hrs by LC-MS/MS analysis; type: ADME, organism-based; set-up: dose 1 mg/kg, time 24 hrs
[20] = AUC (0 to infinity) in Sprague-Dawley rat blood at 1 mg/kg, iv by LC-MS/MS analysis; type: ADME, organism-based; set-up: route intravenous, time infinity, dose 1 mg/kg
[21] = AUC (0 to infinity) in Sprague-Dawley rat plasma at 1 mg/kg, iv by LC-MS/MS analysis; type: ADME, organism-based; set-up: time infinity, route intravenous, dose 1 mg/kg
[22] = Volume of distribution in Sprague-Dawley rat blood at 1 mg/kg, iv measured for 24 hrs by LC-MS/MS analysis; type: ADME, organism-based
[23] = Volume of distribution in Sprague-Dawley rat plasma at 1 mg/kg, iv measured for 24 hrs by LC-MS/MS analysis; type: ADME, organism-based
[24] = Clearance in Sprague-Dawley rat blood at 1 mg/kg, iv measured for 24 hrs by LC-MS/MS analysis; type: ADME, organism-based
[25] = Clearance in Sprague-Dawley rat plasma at 1 mg/kg, iv measured for 24 hrs by LC-MS/MS analysis; type: ADME, organism-based
[26] = Mean residence time (0 to t) in Sprague-Dawley rat blood at 1 mg/kg, iv measured for 24 hrs by LC-MS/MS analysis; type: ADME, organism-based
[27] = Mean residence time (0 to t) in Sprague-Dawley rat plasma at 1 mg/kg, iv measured for 24 hrs by LC-MS/MS analysis; type: ADME, organism-based
[28] = Mean residence time (0 to infinity) in Sprague-Dawley rat blood at 1 mg/kg, iv by LC-MS/MS analysis; type: ADME, organism-based
[29] = Mean residence time (0 to infinity) in Sprague-Dawley rat plasma at 1 mg/kg, iv by LC-MS/MS analysis; type: ADME, organism-based
[30] = Drug concentration in Sprague-Dawley rat blood at 1 mg/kg, iv measured after 8 hrs by LC-MS/MS analysis; type: ADME, organism-based; settings: read-out: Ct
[31] = Plasma concentration in Sprague-Dawley rat at 1 mg/kg, iv measured after 8 hrs by LC-MS/MS analysis; type: ADME, organism-based
[32] = Ratio of drug level in Sprague-Dawley rat blood to plasma at 1 mg/kg, iv measured for 24 hrs by LC-MS/MS analysis; type: ADME, organism-based; settings: blood and plasma
[33] = test system: Mus musculus; assay: Downregulation of DPD expression in colon of athymic nude mouse xenografted with human SW620/5-FU cells at 12.5 mg/kg/day, iv administered for 24 days in presence of 5-FU and measured on day 24 by immunohistochemistry; type: functional, organism-based; settings: time 24.0 day

**Q.** Which results are given for Cc1nn(C)c2nc(NNC(=O)Nc3cc(Cl)nc(Cl)c3)cc(C(C)C)c12?
**A.** AUC(0-t) at 24 h [1]: 726 ng·h/mL; half-life [2]: 60 min; C0 [3]: 1840 ng/mL; C0 [4]: 2020 ng/mL; Activity [5]: Non-Toxic; inhibition [6]: Active; inhibition [7]: Active; inhibition in vivo at 12.5 mg/kg/day [8]: 29.9%; Activity [9]: Toxic; Ka [10]: 8.21 10^4/M/s; Dissociation rate constant (koff) [11]: 1.61 10^-1/s; K [12]: 1.96 10^-6M; EC50 [13]: 58.6 µM; EC50 [14]: 17.1 µM; EC50 [15]: 61.3 µM; Activity [16]: 4.87 mg/L; Activity [17]: 1.37 mg/L; half-life [18]: 66 min; AUC(0-t) at 24 h [19]: 482 ng·h/mL; AUC(0-inf) [20]: 738 ng·h/mL; AUC(0-inf) [21]: 484 ng·h/mL; Vd [22]: 2.1 L/kg; Vd [23]: 3.1 L/kg; clearance [24]: 23.3 mL/min/kg; clearance [25]: 35 mL/min/kg; MRT last at 24 h [26]: 54 min; MRT last at 24 h [27]: 54 min; MRT inf [28]: 60 min; MRT inf [29]: 54 min; concentration at 8 h [30]: < 1 ng/mL; concentration at 8 h [31]: < 1 ng/mL; blood plasma ratio at 24 h [32]: 1.62; inhibition [33]: inactive

Reference: ChEMBL document CHEMBL4842358, “Design, synthesis and biological evaluation of sphingosine-1-phosphate receptor 2 antagonists as potent 5-FU-resistance reversal agents for the treatment of colorectal cancer” (Eur J Med Chem, 2021)
